{"source": "patent US20240158448A1", "about": "“MULTIVALENT NANO-'SELF' PEPTIDES AND USES THEREOF” (THE TRUSTEES OF THE UNIVERSITY OF PENNSYLVANIA, priority 2021, published 2024)", "key": {"THP-1 macrophages": {"test_system": "THP-1 macrophages", "assay": "Phosphotyrosine (pTyr) staining of THP-1 macrophages", "type": "cell-based, human", "conditions": "20 nM peptide", "description": "Phosphotyrosine (pTyr) staining. THP-1 monocytes were PMA differentiated for 48 hours. Macrophages were washed with RPMI three times then incubated with 50 μM and 20 nM of either nS-F or nS-FF for 1 hour at 37° C., 5% CO2 and 95% humidity. The same conditions were replicated with the addition of 5 μg/mL anti-CD47. Excess peptide was washed with PBS then macrophages were fixed. […] After washing with PBS, the macrophages were incubated with 1:100 mouse anti-pTyr (Santa Cruz Biotechnology) for 1 hour at room temperature with shaking. Macrophages were washed with PBS then stained with AlexaFluor 488 donkey anti-mouse (1:1000; Invitrogen) and 1 μg/mL Hoechst 33342 for 1 hour with shaking then washed again. Fluorescence imaging and quantification was performed as described elsewhere herein."}, "[1]": {"assay": "Pre-clinical safety: intravenous nS-FF injections in mice", "type": "in vivo, mouse", "description": "FIGS. 23A-23D illustrate that pre-clinical assessments indicate nS-FF is safe in vivo Phase 1 pre-clinical trial: Intravenous injections of nS-FF were done for four consecutive days followed by blood withdrawal 24 hours after last injection.\nPhase 1 clinical trials for safety of anti-CD47 in patients have shown that infusion into the bloodstream decreases RBC numbers (i.e. hematocrit) and increases reticulocytes (i.e. new RBCs), and related blood safety concerns apply to a bivalent CD47-binding protein made with SIRPα domains fused to a macrophage-binding domain (Fc domain). […] This corresponds to about 8 μM in the blood, assuming rapid mixing and no dilution within the ˜1.5 mL blood volume of the mouse. Withdrawal of ˜140 μL from this blood volume was necessary to obtain a complete hematology profile, and such a volume is expected to cause slight decreases in hematocrit and platelets as shown (FIGS. 23A-23B). Consistent with this loss, more RBCs should be produced in each mouse to compensate for the RBC loss, and the ˜30% increase in reticulocytes after the first two blood draws over 11 days (FIG. 23C) is similar to the prior amount of blood removed (˜300 μl/1500 μl). The mice (˜14 weeks) also continued to gain weight at the same rates (˜5% over 11 days) regardless of peptide injections. These changes are thus expected but, importantly, unaffected by the nSFF peptide, which establishes some safety."}, "[2]": {"test_system": "mouse bone marrow derived macrophages (BMDMs)", "assay": "Phagocytosis of anti-TYRP1 opsonized B16F10 melanoma cells by mouse bone marrow derived macrophages", "type": "cell-based", "description": "B16F10 cells: Bone marrow cells were isolated from femurs and tibias of healthy C57BL6/J mice (The Jackson Laboratory) and cultured in 10-cm petri dishes containing IMDM (Gibco) supplemented with 10% v/v FBS, 1% v/v penicillin/streptomycin, and 1:10,000 macrophage colony stimulating factor cytokine (M-CSF; Biolegend) for 7 days at 37° C., 5% CO2 and 95% humidity. All animal experiments were performed according to protocols approved by the University of Pennsylvania's IACUC (protocol #805977 and #804455). The resulting mouse bone marrow derived macrophages (BMDMs) were washed with PBS containing Ca2^+/Mg2^+ (Gibco) then detached with 0.25% trypsin-EDTA (Gibco) and re-plated in 6-well tissue culture plates using IMDM+M-CSF for 24 hours.\nMouse melanoma B16F10 cells were washed with PBS containing Ca2-/Mg2- and then trypsinized with 0.05% trypsin-EDTA. After washing twice with PBS, the cells were labeled with 1:10,000 CFDA—SE (Thermo Fisher) in PBS for 10 minutes. B16F10 cells were opsonized with 10 μg/mL anti-TYRP1 (TA99; Bio X Cell) in PBS for 2 hours at 4° C.with occasional inverting. For CD47 blocked B16F10 cells, 5 μg/mL of […] were added. During the incubation time, the BMDMs were washed with media then stained with 1:2,000 CellTracker Deep Red (Thermo Fisher) in PBS with Ca2^+/Mg2^+ for 10 min. After washing, 50 μM of the nano—Self peptides were incubated with the BMDMs for 1 hour at 37° C., 5% CO2 and 95% humidity. Finally, BMDMs were washed twice with PBS and then twice with serum-free IMDM.\nWithout removing the supernatant, the opsonized melanoma cells were added to the labeled BMDMs at a ratio of 2:1 for 2 hours at 37° C., 5% CO2 and 95% humidity. During the last 15 minutes of the assay, the cells were Hoechst stained. The wells were washed with serum free IMDM then fixed with 4% formaldehyde for 15 minutes at RT, and PBS washed. Fluorescence imaging was performed using an Olympus IX71 with a digital EMCCD camera (Cascade 512B) and a 40×/0.6 NA objective. Quantification was done with ImageJ (NIH). At least 200 cells were analyzed and two-tailed student's t-test was used to determine statistical significance."}, "human THP-1 macrophages": {"test_system": "human THP-1 macrophages", "assay": "In vitro phagocytosis assay: opsonized human RBCs engulfed by peptide-treated THP-1 macrophages", "type": "cell-based", "conditions": "for EC50: opsonized human RBCs, human macrophages", "description": "In vitro phagocytosis assay. Fresh human RBCs were washed twice with 50 mM EDTA (Thermo Fischer) in PBS (Gibco) then twice with 5% FBS in PBS. RBCs were opsonized with 20 μg/mL rabbit anti-human RBC antibody (Rockland) in 5% FBS for 1 hour at RT with shaking. For CD47 blocked RBCs, 5 μg/mL of mouse anti-human CD47 (B6H12; BD Biosciences) were added. Thereafter, RBCs were washed with PBS three times and stained with PKH26 dye (1:800 dilution in PBS; Sigma) for 1 hour at RT with shaking in the dark. RBCs were washed and resuspended in PBS.\nTHP-1 monocytes were PMA differentiated in RPMI for 48 hours. Macrophages were then washed with RPMI media three times. For SIRPα blocked THP-1 macrophages, 20 nM, 1 μM or 50 μM of the nano—Self peptides were incubated with the THP-1 macrophages for 1 hour at 37 ° C., 5% CO2 and 95% humidity. Those THP-Is were then washed with RPMI three times.\nCO2 and 95% humidity. Macrophages were then washed with RPMI three times. Adherent and uninternalized RBCs were lysed with water for 30 seconds followed by immediate replacement with RPMI media. In order to distinguish remaining adherent RBCs from internalized RBCs, opsonized RBCs were stained with AlexaFluor 647 donkey anti-rabbit (binds to rabbit polyclonal opsonin on RBC; Invitrogen) IgG (1:1000) while unopsonized, CD47 blocked RBCs were stained with AlexaFluor 647 donkey anti-mouse (binds to mouse monoclonal anti-CD47 on RBCs; Invitrogen) IgG (1:1000) for 30 minutes. After washing, macrophages were fixed with 4% formaldehyde for 15 minutes at RT, washed with PBS, stained with 1 μg/mL Hoechst 33342, and then washed with PBS again. Fluorescence imaging was performed as described elsewhere herein and quantification was done using ImageJ. At least 200 cells were analyzed and experiments were repeated at least three times."}}, "note": "Entries after “also recorded” stand apart in the source; their conditions may differ. Where two headings read alike, the source gives them in different places. Non-standard residues stand in square brackets, D forms with d. Primed or numbered codes have the meaning given here. No end group written: not given here. PEG5′ = linker of 5 PEG units between residues", "data": [{"substance": "(VTELFREG-PEG5)2-K (VTELFREG[PEG5′]K[PEG5′]GERFLETV; not fully specified; also: bivalent lysine core) [nS-FF, bivalent nS-F linked through PEG5 linkers to a C-terminal Lys]", "values": [{"measurement": "effect on pTyr signal", "setting": "THP-1 macrophages", "value": "suppressed pTyr at nanomolar concentrations; also recorded: suppressed passivating pTyr intensity; also recorded: suppressed pTyr signal; also recorded: efficiently suppresses phosphorylation"}, {"measurement": "increase in reticulocytes", "setting": "[1]; after the first two blood draws over 11 days, unaffected by peptide", "value": "~30", "unit": "%"}, {"measurement": "safety: mouse hematology and body weight", "setting": "[1]; four daily tail-vein injections of 1 mg/kg, 1 mg/kg", "value": "safe, with no anemia or weight loss; also recorded: no differences versus PBS vehicle control"}, {"measurement": "body weight gain", "setting": "[1]; over 11 days, same rates regardless of peptide injections", "value": "~5", "unit": "%"}, {"measurement": "activity of bivalent peptide in primary mouse macrophages", "setting": "[2]", "value": "low activity; also recorded: reduced activity with mouse macrophages"}, {"measurement": "effect on phagocytosis of opsonized RBCs (words)", "setting": "human THP-1 macrophages; 20 nM peptide", "value": "successful in activating THP-1 to engulf opRBCs; also recorded: more potent in enhancing phagocytosis"}, {"measurement": "macrophages with at least one opsonized RBC internalized", "setting": "human THP-1 macrophages; 20 nM peptide, anti-RBC opsonized RBCs, 1 h assay", "value": "~40", "unit": "%"}, {"measurement": "increase in phagocytosis at higher concentration", "setting": "human THP-1 macrophages; 1 μM, 50 µM versus 20 nM", "value": "~5", "unit": "%"}, {"measurement": "EC50", "setting": "human THP-1 macrophages; read-out: efficacy constant (Keff) for phagocytosis", "value": "~8", "unit": "nM"}]}, {"substance": "VTELTREG [nS-wt, 8-amino acid wild type nano-Self peptide from the CD47 loop, C-terminal amide]", "values": [{"measurement": "effect on phagocytosis of opsonized WT and SIRPα KO B16 cells", "setting": "[2]; 50 μM peptide", "value": "lower levels"}, {"measurement": "macrophages containing opsonized RBCs", "setting": "human THP-1 macrophages; maximum peptide concentration 50 μM, anti-RBC opsonized RBCs", "value": "~30", "unit": "%"}, {"measurement": "EC50", "setting": "human THP-1 macrophages; read-out: effective potency (keff) for phagocytosis", "value": "~1000", "unit": "nM"}, {"measurement": "effect on phagocytosis of opsonized RBCs (words)", "setting": "human THP-1 macrophages; saturating / 50 μM peptide", "value": "least effective among monovalents; also recorded: Lower levels of phagocytosis; also recorded: gives the same result as anti-CD47"}]}]}
